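Cells were grown in 96-well plates and exposed to each compound for 48 hours at five concentrations; endpoints were interpolated linearly between bracketing concentrations, or set to the highest concentration if not reached. GI50 = concentration required for 50% inhibition of growth. TGI denotes the concentration required for complete inhibition of growth.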 Where a SMILES comes first, the peptide text is derived from it. The star is where a group is joined. Cbz = O=C(OCc1ccccc1)*; Bn = c1ccc(C*)cc1
How the values were obtained:
Test in all cases: NCI tumour cell line growth inhibition, 48 h
[1] = tested on: SNB-78 CNS
[2] = tested on: SR leukemia
[3] = tested on: 786-0 renal
[4] = tested on: LXFL 529 NSCLC
[5] = tested on: HL-60(TB) leukemia
[6] = tested on: RXF-631 renal
[7] = tested on: MDA-MB-435
[8] = tested on: HS 578T breast
[9] = tested on: BT-549 breast
[10] = tested on: P388 leukemia
[11] = tested on: P388/ADR leukemia
[12] = tested on: SN12K1 renal

Row | Structure (SMILES) | TGI [1] [µM] | TGI [2] [µM] | TGI [3] [µM] | TGI [4] [µM] | TGI [5] [µM] | TGI [7] [µM] | TGI [8] [µM] | TGI [9] [µM] | other results
1 | O=C1c2cccc(O)c2C(=O)c2c(O)cccc21 | > 100 | > 100 | > 100 | > 100 |  |  |  |  | 
2 | CC1C[C@]2(C[C@@H](C)C(=O)O2)OC2CC3(C)C4CCC5C(C)(C)OC(=O)CC[C@@]56C[C@@]46CC[C@]3(C)C12 (stereo not given in full) | > 100 | > 100 |  | > 100 | > 100 |  |  |  | TGI [6]: > 100 µM
3 | C=CCOCCC(CC=C)C(=O)CC(=O)OC (stereo not given) |  | > 100 |  |  | > 100 |  |  |  | 
4 | COC(=O)C(Cc1ccc(O)cc1)NC(=O)C(COCc1ccccc1)NC(=O)OCc1ccccc1 (stereo not given) (Cbz-Ser(Bn)-Tyr-OMe; configuration not given here) |  | > 100 |  |  | > 100 | 34.1 | 53 | > 100 | 
5 | C1CSCCSCSCCS1 |  |  |  |  |  | > 100 | > 100 | > 100 | 
6 | c1ccc(-c2n(Cc3ccc4ccccc4c3)c3ccccc3[n+]2Cc2ccc3ccccc3c2)cc1 |  | 1.64 |  |  |  | 1.06 |  |  | GI50 [2]: 0.343 µM; GI50 [7]: 0.288 µM
7 | NC(=O)c1ccc([N+](=O)[O-])cc1 | > 100 |  | > 100 | > 100 |  |  |  |  | TGI [6]: > 100 µM
8 | NC(CCP(=O)(O)O)C(=O)O (stereo not given) |  | > 100 | > 100 |  | > 100 | > 100 | > 100 | > 100 | 
9 | CCn1c(=O)c(C(=O)O)c(Cl)c2cc3c(cc21)OCO3 | > 100 |  |  |  | > 100 |  |  |  | TGI [10]: > 100 µM; TGI [11]: > 100 µM; TGI [12]: > 100 µM
10 | O=C(Nc1ccc(Cl)cc1)c1cc([N+](=O)[O-])ccc1O |  | 31.6 | > 46.8 | 16.8 | 8.62 |  |  |  | TGI [6]: > 45.7 µM
11 | COc1ccc(N2C(=O)/C(=C\c3ccccc3)SC2c2cc(OC)c(OC)c(OC)c2)cc1 (stereo not given) |  | > 100 |  |  |  | 79.7 | > 100 | > 100 | 
12 | COc1ccc(-c2oc3cc(OC(C)=O)cc(OC(C)=O)c3c(=O)c2OC)cc1 |  | 51.5 |  |  | 33.9 | 25.4 |  |  | 
13 | N=C(N)c1ccc(-c2ccc(-c3ccc4ccccc4c3)s2)s1 |  |  |  |  | 5.11 | 4.08 | 4.71 | 46.8 | GI50 [7]: 1.91 µM; GI50 [5]: 1.81 µM; GI50 [8]: 2.07 µM; GI50 [9]: 17.6 µM
14 | CS(=O)(=O)c1ccc2nc(-c3ccc(O)cc3)sc2c1 |  | 39.8 |  |  | 63.9 | 37.8 |  | 30.5 | 
15 | CC(=O)OCC1OC(NC(=O)N(CCCl)N=O)C(OC(C)=O)C(OC(C)=O)C1OC(C)=O (stereo not given) | > 100 |  |  |  | > 100 |  |  |  | TGI [10]: > 100 µM; TGI [11]: > 100 µM; TGI [12]: > 100 µM
16 | C[n+]1c2ccccc2c(CNCC(=O)O)c2ccccc21 | 44.3 |  | 2.58 | 3.15 |  |  |  |  | 

Reference: PubChem BioAssay (NCI)
